Series [1] has as its system Ebolavirus. Kind of series: Antiviral activity against Ebolavirus Makona infected in human HeLa cells preincubated for 2 hrs followed by viral infection measured after 15 to 20 hrs by Draq5 staining based assay. It is filed as functional, cell-based, Zaire ebolavirus Makona. To be noted: Orthoebolavirus.
A short description of series [2]: Cytotoxicity against human HeLa cells after 2 hrs by Draq staining based assay. The class given is cell-based.
The next series deals with Marburgvirus. Kind of series: Antiviral activity against Marburg virus Ci67 infected in human HeLa cells preincubated for 2 hrs followed by viral infection measured after 15 to 20 hrs by Draq staining based assay. To be noted: Orthomarburgvirus. The class given is functional, cell-based, Lake Victoria marburgvirus - Ci67.
For series [3], the system named is Ebolavirus. Kind of series: Antiviral activity against Sudan virus Gulu infected in human HeLa cells preincubated with cells for 2 hrs followed by viral infection measured after 48 hrs by immunostaining based assay. It is filed as functional, cell-based, Sudan ebolavirus. Particulars: Orthoebolavirus.
The next series relates to Huh-7. Kind of series: Cytotoxicity against human HuH7 cells after 2 to 3 hrs by CellTiter-Glo assay. It is filed as cell-based. Background: Cellular ATP, detected with luciferase, serves as a proxy for viable cell number.
The test system of another series is Lassa virus. Kind of series: Antiviral activity against Lassa virus infected in human HuH7 cells pretreated for 2 to 3 hrs followed by viral infection measured after 3 days by fluorescence assay. The class given is functional, cell-based. Particulars: Mammarenavirus lassaense, Huh-7.
In the next series the test system is Rift Valley fever virus. Kind of series: Antiviral activity against Rift Valley fever virus infected in human HeLa cells preincubated for 2 to 3 hrs followed by viral infection measured after 3 days by fluorescence assay. The class given is functional, cell-based.

In the case of `CCC(CC)COC(=O)[C@H](C)N[P@](=O)(OCCOCn1cnc(-c2cnc(N)nc2OC)c1)Oc1ccccc1`, the EC50 is 29 µM in the series with Ebolavirus [1]; 62 µM in the series with Marburgvirus; 7 µM in the series on Ebolavirus [3]; above 50 µM in the series on Lassa virus; above 50 µM with Rift Valley fever virus. In series [2], this compound had a CC50 at 2 h above 100 µM. In the series with Huh-7, this compound came in with a CC50 above 50 µM.
In the case of `COc1nc(N)ncc1-c1cn(COCCOC(C)=O)cn1`, the values for the concentration for a half-maximal effect (EC50) in the series with Ebolavirus [1], with Marburgvirus and in the series on Ebolavirus [3] were 44 µM, 70 µM and 20 µM, respectively. This compound also had a CC50 at 2 h in series [2] above 100 µM.
With `COc1nc(N)ncc1-c1cn(COCCO)cn1`, the 50% effective concentration (EC50) was above 100 µM with Ebolavirus [1]; above 100 µM in the series on Marburgvirus; above 100 µM with Ebolavirus [3]; above 50 µM with Lassa virus; above 50 µM in the series on Rift Valley fever virus. This compound yielded a CC50 at 2 h in series [2] above 100 µM. The compound further showed a cytotoxic concentration (CC50) in the series on Huh-7 above 50 µM.

By EC50 is commonly meant the concentration needed to bring the measured effect to its halfway point. One may read the CC50 as the concentration giving 50% cytotoxicity. A higher CC50 goes with better tolerance by the cells.

Values taken from ChEMBL document CHEMBL4020744 (Bioorg Med Chem Lett, 2017).
